Assay results as given in patent US9676763B2 (priority 2010, dated 2017).

What was measured:
[1] = tested on: VSV luc particles bearing the native VSV G glycoprotein; assay type: cell-based, vesicular stomatitis virus

Row | Structure (SMILES) | anti-EboV activity (EboV) | specificity for EboV GP versus VSV G particles [1]
1 | CCCCc1oc2ccccc2c1C(=O)c1cc(I)c(OCCN(CC)CC)c(I)c1 [amiodarone] | weak anti-EboV activity | –
2 | CCOC(=O)C1=C(COCCN)NC(C)=C(C(=O)OC)C1c1ccccc1Cl (stereo not drawn) [amlodipne] | weak anti-EboV activity | –
3 | CCOc1ccc(S(=O)(=O)N(C)c2ccc(OCC(=O)N(C)C3CCN(C)CC3)cc2)cc1 [compound 6] | – | EboV specific
4 | Oc1ccc(/C=N/n2c(-c3ccco3)cs/c2=N\c2ccc(F)cc2F)c(O)c1 [compound 7] | – | EboV specific
5 | COC(=O)c1ccc(-c2ccco2)n1Cc1cccc(F)c1 [compound 8] | – | EboV specific
6 | COc1ccc([C@@H]2Sc3ccccc3N(CCN(C)C)C(=O)[C@@H]2OC(C)=O)cc1 [diltiazen] | weak anti-EboV activity | –
